# In patent US10988477B2 (Merck Patent GmbH, priority 2018, dated 2021):
# Experiments:
# [1] = biological target: intracellular GCN2 (phosphorylation of the GCN2 substrate eIF2α) (Homo sapiens, UniProt Q9P2K8); assay: GCN2 cellular inhibition assay (AlphaScreen SureFire P-eIF2α Ser51, borrelidin-treated U2OS cells); assay type: cell-based; settings: compounds of Formula II; biomarker assay, phosphorylated eIF2α Ser51 in borrelidin-treated U2OS cells
# Outline: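 U2OS, overnight attach; cpd 4-fold serial dil. from 40 μM final; borrelidin 10 μM, 1 h 37 °C/5% CO2; lyse; AlphaScreen P-eIF2α Ser51 (acceptor 2 h, donor overnight, RT, dark); % inhib. vs borrelidin-only.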
# [2] = biological target: GCN2 kinase (Homo sapiens, UniProt Q9P2K8); assay: GCN2 enzyme inhibition assay (Transcreener ADP2 fluorescence polarization); assay type: biochemical; settings: compounds of Formula II; 280 μM ATP, 4 nM GCN2 kinase
# Outline: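 FP detection of ADP (antibody plus Alexa633 tracer) after a 1 h, 25 °C kinase reaction. Enzyme 4 nM, ATP 280 μM, (RS)7 peptide 200 μM, Tris pH 7.5 buffer with MgCl2 and DTT. Percent inhibition fitted by non-linear tight-binding algorithm for IC50 and Ki(app).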
# Sequence of GCN2 kinase (Q9P2K8 whole entry): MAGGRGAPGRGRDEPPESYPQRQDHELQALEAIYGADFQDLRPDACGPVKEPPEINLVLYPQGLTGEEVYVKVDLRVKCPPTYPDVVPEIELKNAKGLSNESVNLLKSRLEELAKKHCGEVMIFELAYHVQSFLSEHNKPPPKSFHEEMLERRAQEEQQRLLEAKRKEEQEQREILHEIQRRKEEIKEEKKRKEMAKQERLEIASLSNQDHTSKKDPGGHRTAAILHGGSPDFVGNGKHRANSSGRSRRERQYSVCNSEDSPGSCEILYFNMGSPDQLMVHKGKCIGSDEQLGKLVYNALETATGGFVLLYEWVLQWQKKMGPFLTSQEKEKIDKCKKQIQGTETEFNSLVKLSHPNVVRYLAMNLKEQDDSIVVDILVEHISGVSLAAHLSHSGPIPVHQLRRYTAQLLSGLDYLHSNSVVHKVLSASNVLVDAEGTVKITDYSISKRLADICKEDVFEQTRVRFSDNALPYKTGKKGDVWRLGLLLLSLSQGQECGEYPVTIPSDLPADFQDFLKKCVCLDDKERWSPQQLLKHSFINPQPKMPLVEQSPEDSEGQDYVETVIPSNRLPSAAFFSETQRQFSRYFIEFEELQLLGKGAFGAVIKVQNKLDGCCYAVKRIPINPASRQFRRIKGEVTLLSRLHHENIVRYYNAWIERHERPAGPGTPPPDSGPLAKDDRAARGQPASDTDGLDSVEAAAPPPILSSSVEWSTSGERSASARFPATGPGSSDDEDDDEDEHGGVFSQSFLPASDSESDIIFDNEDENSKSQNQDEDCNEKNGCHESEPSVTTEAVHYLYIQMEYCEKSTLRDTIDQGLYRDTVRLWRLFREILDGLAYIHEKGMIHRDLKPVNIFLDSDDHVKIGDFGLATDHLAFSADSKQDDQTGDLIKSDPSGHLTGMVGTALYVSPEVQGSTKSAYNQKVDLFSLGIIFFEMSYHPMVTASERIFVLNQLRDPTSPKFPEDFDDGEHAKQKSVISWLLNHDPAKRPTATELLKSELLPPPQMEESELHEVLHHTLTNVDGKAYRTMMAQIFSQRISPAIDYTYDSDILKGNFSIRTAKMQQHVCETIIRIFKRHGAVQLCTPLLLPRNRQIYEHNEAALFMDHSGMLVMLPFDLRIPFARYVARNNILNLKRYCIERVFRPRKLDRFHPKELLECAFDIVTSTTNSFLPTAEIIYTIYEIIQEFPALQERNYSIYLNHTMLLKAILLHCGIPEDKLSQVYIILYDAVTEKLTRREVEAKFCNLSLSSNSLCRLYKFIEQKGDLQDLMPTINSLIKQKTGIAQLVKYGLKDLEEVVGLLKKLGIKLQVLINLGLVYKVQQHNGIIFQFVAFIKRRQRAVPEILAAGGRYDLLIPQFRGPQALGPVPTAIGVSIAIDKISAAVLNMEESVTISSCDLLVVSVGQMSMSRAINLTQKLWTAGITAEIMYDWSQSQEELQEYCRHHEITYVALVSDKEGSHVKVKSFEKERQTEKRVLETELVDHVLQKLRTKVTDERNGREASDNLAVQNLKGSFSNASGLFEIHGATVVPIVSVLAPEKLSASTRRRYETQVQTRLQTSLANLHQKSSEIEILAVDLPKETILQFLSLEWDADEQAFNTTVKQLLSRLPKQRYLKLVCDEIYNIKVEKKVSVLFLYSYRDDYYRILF
# Sequence of intracellular GCN2 (phosphorylation of the GCN2 substrate eIF2α) (Q9P2K8 whole entry): as above
Structure (SMILES),IC50 [1] [nM],Ki [2] [nM]
"CS(=O)(=O)NCC1CCCN(c2cc(-c3cnc4ccc(C(F)F)nn34)ccc2C#N)C1 (stereo not shown) [II-82, N-((1-(2-Cyano-5-(6-(difluoromethyl)imidazo[1,2-b]pyridazin-3-yl)phenyl)piperidin-3-yl)methyl)methanesulfonamide]",500 to 5000,10 to 1000
"CS(=O)(=O)NCC1CCCN(c2cc(-c3cnc4ccc(C(F)F)nn34)cc(N3CC4(COC4)C3)n2)C1 (stereo not shown) [II-83, N-((1-(4-(6-(Difluoromethyl)imidazo[1,2-b]pyridazin-3-yl)-6-(2-oxa-6-azaspiro[3.3]heptan-6-yl)pyridin-2-yl)piperidin-3-yl)methyl)methanesulfonamide]",500 to 5000,< 10
"CS(=O)(=O)NCC1CCCN(c2cc(-c3cnc4ccc(C(F)F)nn34)cc(OC3CNC3)n2)C1 (stereo not shown) [II-84, N-((1-(6-(Azetidin-3-yloxy)-4-(6-(difluoromethyl)imidazo[1,2-b]pyridazin-3-yl)pyridin-2-yl)piperidin-3-yl)methyl)methanesulfonamide]",500 to 5000,< 10
"CS(=O)(=O)NCC1CCCN(c2cc(-c3cnc4ccc(C(F)F)nn34)cc(N3CC(O)C3)n2)C1 (stereo not shown) [II-85, N-((1-(4-(6-(Difluoromethyl)imidazo[1,2-b]pyridazin-3-yl)-6-(3-hydroxyazetidin-1-yl)pyridin-2-yl)piperidin-3-yl)methyl)methanesulfonamide]",500 to 5000,< 10
"CS(=O)(=O)NCC1CCCN(c2cc(-c3cnc4ccc(C(F)F)nn34)cc(N3CC4(CCO4)C3)n2)C1 (stereo not shown) [II-86, N-((1-(4-(6-(Difluoromethyl)imidazo[1,2-b]pyridazin-3-yl)-6-(1-oxa-6-azaspiro[3.3]heptan-6-yl)pyridin-2-yl)piperidin-3-yl)methyl)methanesulfonamide]",500 to 5000,< 10
"CS(=O)(=O)NCC1CCCN(c2cncc(-c3cnc4ccc(C(F)F)nn34)c2)C1 (stereo not shown) [II-87, N-((1-(5-(6-(Difluoromethyl)imidazo[1,2-b]pyridazin-3-yl)pyridin-3-yl)piperidin-3-yl)methyl)methanesulfonamide]",500 to 5000,< 10
"O=C1OCC2CN(c3cc(-c4cnc5ccc(C(F)F)nn45)ccn3)CCN12 (stereo not shown) [II-88, 7-(4-(6-(Difluoromethyl)imidazo[1,2-b]pyridazin-3-yl)pyridin-2-yl)tetrahydro-1H-oxazolo[3,4-a]pyrazin-3(5H)-one]",500 to 5000,10 to 1000
"COCCNc1cc(-c2cnc3ccc(C(F)F)nn23)cc(N2CCCC(CNS(C)(=O)=O)C2)n1 (stereo not shown) [II-89, N-((1-(4-(6-(Difluoromethyl)imidazo[1,2-b]pyridazin-3-yl)-6-((2-methoxyethyl)amino)pyridin-2-yl)piperidin-3-yl)methyl)methanesulfonamide]",500 to 5000,< 10
"CS(=O)(=O)NCC1CN(c2cc(-c3cnc4ccc(C(F)F)nn34)ccn2)CCN1 (stereo not shown) [II-90, N-((4-(4-(6-(Difluoromethyl)imidazo[1,2-b]pyridazin-3-yl)pyridin-2-yl)piperazin-2-yl)methyl)methanesulfonamide]",500 to 5000,10 to 1000
"CS(=O)(=O)NCC1CCCN(c2cc(-c3cnc4ccc(C(F)F)nn34)cc(N3CC4(CNC4)C3)n2)C1 (stereo not shown) [II-92, N-[[1-[6-(2,6-Diazaspiro[3.3]heptan-2-yl)-4-[6-(difluoromethyl)imidazo[1,2-b]pyridazin-3-yl]-2-pyridyl]-3-piperidyl]methyl]methanesulfonamide]",500 to 5000,< 10
"CC1CN(c2ccnc(-c3cnc4ccc(C(F)F)nn34)c2)CC(CNS(C)(=O)=O)O1 (stereo not shown) [II-94, N-((4-(2-(6-(Difluoromethyl)imidazo[1,2-b]pyridazin-3-yl)pyridin-4-yl)-6-methylmorpholin-2-yl)methyl)methanesulfonamide]",< 500,< 10
"CS(=O)(=O)NCC1CCCN(c2cc(-c3cnc4ccc(C(F)F)nn34)cc(N3CCNCC3)n2)C1 (stereo not shown) [II-96, N-((1-(4-(6-(Difluoromethyl)imidazo[1,2-b]pyridazin-3-yl)-6-(piperazin-1-yl)pyridin-2-yl)piperidin-3-yl)methyl)methanesulfonamide]",500 to 5000,< 10
"CN1CCN(c2cc(-c3cnc4ccc(C(F)F)nn34)ccn2)CC1CO (stereo not shown) [II-97, (4-(4-(6-(Difluoromethyl)imidazo[1,2-b]pyridazin-3-yl)pyridin-2-yl)-1-methylpiperazin-2-yl)methanol]",> 5000,10 to 1000
"CN1CCN(c2cc(-c3cnc4ccc(C(F)F)nn34)ccn2)CC1CNS(C)(=O)=O (stereo not shown) [II-98, N-((4-(4-(6-(Difluoromethyl)imidazo[1,2-b]pyridazin-3-yl)pyridin-2-yl)-1-methylpiperazin-2-yl)methyl)methanesulfonamide]",500 to 5000,10 to 1000
"CS(=O)(=O)NCC1COCCN(c2cc(-c3cnc4ccc(C(F)F)nn34)ccn2)C1 (stereo not shown) [II-99, N-((4-(4-(6-(Difluoromethyl)imidazo[1,2-b]pyridazin-3-yl)pyridin-2-yl)-1,4-oxazepan-6-yl)methyl)methanesulfonamide]",500 to 5000,< 10
"CS(=O)(=O)N1CC2(CCCN(c3cncc(-c4cnc5ccc(C(F)F)nn45)c3)C2)C1 [II-101, 6-(Difluoromethyl)-3-(5-(2-(methylsulfonyl)-2,6-diazaspiro[3.5]nonan-6-yl)pyridin-3-yl)imidazo[1,2-b]pyridazine]",500 to 5000,< 10
"CS(C)(=O)=NC[C@@H]1CN(c2cc(-c3cnc4ccc(C(F)F)nn34)ccn2)CCO1 [II-102, [(2S)-4-[4-[6-(Difluoromethyl)imidazo[1,2-b]pyridazin-3-yl]-2-pyridyl]morpholin-2-yl]methylimino-dimethyl-oxo-sulfane]",> 5000,10 to 1000
"CS(=O)(=O)NCC1CN(c2ccnc(-c3cnc4ccc(C(F)F)nn34)c2)CCC1(F)F (stereo not shown) [II-103, N-((1-(2-(6-(Difluoromethyl)imidazo[1,2-b]pyridazin-3-yl)pyridin-4-yl)-4,4-difluoropiperidin-3-yl)methyl)methanesulfonamide]",< 500,< 10
"CS(=N)(=O)CCC1CCCN(c2cc(-c3cnc4ccc(C(F)F)nn34)ccn2)C1 (stereo not shown) [II-104, (2-(1-(4-(6-(Difluoromethyl)imidazo[1,2-b]pyridazin-3-yl)pyridin-2-yl)piperidin-3-yl)ethyl)(imino)(methyl)-λ^6-sulfanone]",> 5000,10 to 1000
"CC(NS(C)(=O)=O)C1CN(c2ccnc(-c3cnc4ccc(C(F)F)nn34)c2)CCO1 (stereo not shown) [II-105, N-(1-(4-(2-(6-(Difluoromethyl)imidazo[1,2-b]pyridazin-3-yl)pyridin-4-yl)morpholin-2-yl)ethyl)methanesulfonamide]",500 to 5000,< 10
"CC(NS(C)(=O)=O)C1CN(c2cc(-c3cnc4ccc(C(F)F)nn34)ccn2)CCO1 (stereo not shown) [II-106, N-(1-(4-(4-(6-(Difluoromethyl)imidazo[1,2-b]pyridazin-3-yl)pyridin-2-yl)morpholin-2-yl)ethyl)methanesulfonamide]",500 to 5000,< 10
"FC(F)c1ccc2ncc(-c3ccnc(N4CCOC(c5cn[nH]c5)C4)c3)n2n1 (stereo not shown) [II-107, 4-(4-(6-(Difluoromethyl)imidazo[1,2-b]pyridazin-3-yl)pyridin-2-yl)-2-(1H-pyrazol-4-yl)morpholine]",< 500,10 to 1000
"FC(F)c1ccc2ncc(-c3ccnc(N4CCOC(c5cn[nH]c5)C4)c3)n2n1 (stereo not shown) [II-108, 4-(4-(6-(Difluoromethyl)imidazo[1,2-b]pyridazin-3-yl)pyridin-2-yl)-2-(1H-pyrazol-4-yl)morpholine]",500 to 5000,10 to 1000
"CN(CC1CCCN(c2cc(-c3cnc4ccc(C(F)F)nn34)ccn2)C1)S(C)(=O)=O (stereo not shown) [II-109, N-((1-(4-(6-(Difluoromethyl)imidazo[1,2-b]pyridazin-3-yl)pyridin-2-yl)piperidin-3-yl)methyl)-N-methylmethanesulfonamide]",500 to 5000,10 to 1000
"CS(=O)(=O)NC[C@@H]1CN(c2ccnc(-c3cnc4ccc(C(F)F)nn34)c2)CCO1 [II-110, (S)—N-((4-(2-(6-(Difluoromethyl)imidazo[1,2-b]pyridazin-3-yl)pyridin-4-yl)morpholin-2-yl)methyl)methanesulfonamide]",< 500,< 10
"CS(=O)(=O)NC[C@H]1CCCN(c2cc(-c3cnc4ccc(C(F)F)nn34)cc(O)n2)C1 [II-111, (S)—N-((1-(4-(6-(Difluoromethyl)imidazo[1,2-b]pyridazin-3-yl)-6-oxo-1,6-dihydropyridin-2-yl)piperidin-3-yl)methyl)methanesulfonamide]",500 to 5000,< 10
"CS(=O)(=O)NCC1CN(c2cc(-c3cnc4ccc(C(F)F)nn34)ncn2)CCC1O (stereo not shown) [II-112, N-((1-(6-(6-(Difluoromethyl)imidazo[1,2-b]pyridazin-3-yl)pyrimidin-4-yl)-4-hydroxypiperidin-3-yl)methyl)methanesulfonamide]",500 to 5000,< 10
"OCCn1cc(-c2cc(-c3cnc4ccc(C(F)F)nn34)ccn2)cn1 [II-113, 2-(4-(4-(6-(Difluoromethyl)imidazo[1,2-b]pyridazin-3-yl)pyridin-2-yl)-1H-pyrazol-1-yl)ethanol]",500 to 5000,10 to 1000
"CC(C)(NS(C)(=O)=O)C1CCCN(c2cc(-c3cnc4ccc(C(F)F)nn34)ccn2)C1 (stereo not shown) [II-114, N-(2-(1-(4-(6-(Difluoromethyl)imidazo[1,2-b]pyridazin-3-yl)pyridin-2-yl)piperidin-3-yl)propan-2-yl)methanesulfonamide]",> 5000,10 to 1000
